Patent publication US4223041A, “Urea derivatives to treat anxiety and aggressivity” (Labaz, priority 1976, dated 1980)

Key:
[1] = "Electrically-provoked combat" test (anxiolytic action); format: in vivo, mouse; settings: for protection against anxiety: same experimental conditions
Text: Under certain conditions, a pair of mice reacts to an electric stimulus by a series of combats which are provoked by the anxiety felt by the animals as a result of the electric shock. This anxiety is expressed by a combat with the other animal which is rendered responsible. For this reason, the test described hereunder can be considered as a means of evaluating the anxiolytic action of a compound. Two mice which have been previously on a diet consisting only of water are placed together in a cage. They are then submitted to a series of electric impulses of an intensity varying between 40 and 80 volts according to the sensitivity of the animals. The test is first carried out with untreated animals as controls and then with the same animals treated 30 minutes before the test with a dose of the compound to be studied.
Note is taken on the number of combats engaged. The results are expressed in percentage of decrease in the number of combats engaged by the treated animals in comparison with the number of combats registered before treatment.

[2] = rota rod test (neurotoxicity); format: in vivo, mouse; settings: for % of failures in rota rod test: mice, 30 min after administration; for Rota rod (% of failures): comparison at 25%-protection dose of four plates test
Method: The test used was that known as the rota rod test described by BOISSIER (Therapie 1958 XIII pp. 1074-1118).
This test aims at determining the ability of mice to coordinate their movements by seeing to what extent they can remain on a roller turning at a rate of 4 revolutions per minute for two minutes. The trial was carried out thirty minutes after administration by oral route of the compound to be studied and the percentage of failures was noted.
The value of this test is twofold. Failure on the part of the animals gives a very early indication of the slightest damage to the meuromuscular functions which cannot be discerned by any other means. Secondly, this test serves as an element of comparison for drawing up index figures involving the results obtained with other tests.

[3] = Action on the pentylenetetrazole-induced seizure (anticonvulsant activity); format: in vivo, mouse
Method: The purpose of this test which is carried out on mice is to determine whether the compounds of the invention, when given preventively by oral route, are capable at certain doses of protecting some of the animals against the epileptic seizure produced by a predetermined dose of pentylenetetrazole which would be 100% fatal in the absence of the compound.
The compound to be studied was administered fifteen minutes before an injection of 125 mg/kg of pentylenetetrazole and note was taken of the number of deaths occurring during the three hours following this injection. The results were expressed in percentage of protection of the animals against death at the dose studied.

[4] = Action with respect to tremorine (cholinolytic properties); format: in vivo, mouse; settings: 100 mg/kg oral, mice, 30 min before 100 mg/kg i.p. tremorine
Method: This test has been described by EVERETT (Nature, 1956, 177-238)
When injected into mice, tremorine produces peripheral cholinergic effects i.e. weeping, hypersalivation, sedation, diarrhea as well as central cholinergic effects i.e. tremors, akinesia.
Batches of 10 mice separated into individual cages, were given the compound to be studied, by oral route, 30 minutes before administration of an intraperitoneal dose of 100 mg/kg of tremorine.
Note was then taken in each batch of the percentage of animals presenting the various symptoms of tremorine-induced poisoning since at such a dose of tremorine 100% of the control animals are poisoned.
The results hereunder are expressed in percentage of mice protected against tremor at the dose of the compound of the invention which was administered: […]

[5] = Four plates test (anxiolytic action); format: in vivo, mouse; settings: for ED25: po, read-out: ED25 in the four plates test (dose which offers 25%-protection against anxiety); for positive result in four plates test without sedative effect: at ED25 of four plates test
Text: This test, which is specific to the anxiolytics, was undertaken with the mouse, thirty minutes after the oral administration of the compound to be studied.
It consists in placing mice in a box with fairly high walls, of which the bottom comprises four square plates. These plates, which all have the same dimensions, are separated from each other by a central axis and are alternately electrified by the positive and negative poles of a source of electric current. There is a space of a few millimeters between adjacent plates.
The mouse placed in this apparatus explores it and thus passes over the different plates in succession. Note is taken of the number of times each animal passes over the plates during one minute. When the current is switched on, the mouse passing over the plates receives an electric shock (80 V), which provokes a gradual decrease in the exploratory movements, and finally brings the animals to a complete stop.
Anxiolytic agents enable the animals to become more or less indifferent to the electric shock.
The percentage of protection against anxiety given by compounds of the invention was calculated by comparing the number of times the control animals passed over the plates when electrified with the number of times the treated animals passed over the electrified plates.

[6] = spontaneous motoricity in the mouse; format: in vivo; settings: for Spontaneous motoricity (% of decrease): comparison at 25%-protection dose of four plates test
Text: This test is described in U.S. Pat. No. 3,929,869.

[7] = Aggressivity of the isolated mouse (antiaggressive activity); format: in vivo
Text: If a male mouse is isolated in a cage for three to four weeks, it will spontaneously attack any other animal of the same species which is placed in the same cage.
Mice wer isolated for the period of time required to render them spontaneously aggressive. Two mice, one rendered aggressive and one in a normal non-aggressive state, were then placed together and note was taken of the number of attacks by the aggressive mouse which occurred over a period of three minutes.
Each batch was composed of five pairs of animals.
The aggressive animals of each batch were then treated by oral route with the compound to be studied which was administered in such a way that the aggressive animals of each batch received a higher dose than those of the preceding batch.
Thirty minutes after administration, the couples were placed together again for a further three minutes and the number of attacks noted.

[8] = Mus musculus, po, 3 h, read-out: % of protection against death
[9] = Mus musculus, 0.5 h, mice, 30 min before test, read-out: % of decrease in number of combats
[10] = at the dose which provokes a 60%-decrease in the number of combats

## CCC#CC(CCC)(CCC)NC(N)=O [Compound B, 1-(1,1-Di-n-propyl-2-pentynyl)-urea]
[1]; Mus musculus, 0.5 h, 56.5 mg/kg, mice, 30 min before test, read-out: % of decrease in number of combats
  inhibition in vivo at 56.5 mg/kg: 52%

## CC#CC(CCC)(CCC)NC(N)=O [Compound D, 1-(1,1-Di-n-propyl-2-butynyl)-urea]
[1]; Mus musculus, 0.5 h, 74 mg/kg, mice, 30 min before test, read-out: % of decrease in number of combats
  inhibition in vivo at 74 mg/kg: 50%
[2]; 250 mg/kg oral
  % of failures in rota rod test: 50%
[3]; [8]
  responders at 80.5 mg/kg: 50%
[3]; pentylenetetrazole-induced seizure, mice, oral
  anticonvulsant activity (in words): considerable

## C=CCC(CCC)(CCC)NC(N)=O [Compound E, 1-(1,1-Di-n-propyl-3-butenyl)-urea]
[4]
  % of protection against tremor: 0%
[5]; 0.5 h, 100 mg/kg oral, mouse, 30 min after administration, read-out: % of protection against anxiety
  inhibition in vivo at 100 mg/kg: 27%
[1]; Mus musculus, 0.5 h, 50 mg/kg, mice, 30 min before test, read-out: % of decrease in number of combats
  inhibition in vivo at 50 mg/kg: 70%
[3]; [8]
  responders at 300 mg/kg: 90%

## CCC(CC)(CC)NC(N)=O [Compound F, 1-(1,1-Diethyl-n-propyl)-urea]
[5]; 0.5 h, 175 mg/kg oral, mouse, 30 min after administration, read-out: % of protection against anxiety
  inhibition in vivo at 175 mg/kg: 16%
[1]; Mus musculus, 0.5 h, 82 mg/kg, mice, 30 min before test, read-out: % of decrease in number of combats
  inhibition in vivo at 82 mg/kg: 50%
[3]; [8]
  responders at 150 mg/kg: 50%

## CCCCC(C)(CC)NC(N)=O (stereo not shown) [Compound G, 1-(1-Methyl-1-ethyl-pentyl)-urea]
[5]; 0.5 h, 282 mg/kg oral, mouse, 30 min after administration, read-out: % of protection against anxiety
  inhibition in vivo at 282 mg/kg: 18%
[1]; Mus musculus, 0.5 h, 94 mg/kg, mice, 30 min before test, read-out: % of decrease in number of combats
  inhibition in vivo at 94 mg/kg: 48%
[3]; [8]
  responders at 188 mg/kg: 20%

## CCCC(CCC)(NC(N)=O)C(C)C [Compound H, 1-(1-n-Propyl-1-isopropyl-n-butyl)-urea]
[5]; 0.5 h, 250 mg/kg oral, mouse, 30 min after administration, read-out: % of protection against anxiety
  inhibition in vivo at 250 mg/kg: 39%
[1]; Mus musculus, 0.5 h, 110 mg/kg, mice, 30 min before test, read-out: % of decrease in number of combats
  inhibition in vivo at 110 mg/kg: 50%

## CCCC(CCC)(CCC)NC(=O)N(C)C [Compound I, 1-(1,1-Di-n-propyl-n-butyl)-3,3-dimethyl-urea]
[5]; 0.5 h, 350 mg/kg oral, mouse, 30 min after administration, read-out: % of protection against anxiety
  inhibition in vivo at 350 mg/kg: 29%
[1]; [9]
  inhibition in vivo at 200 mg/kg: 55%

## CCCCC(CCCC)(CCCC)NC(N)=O [Compound J, 1-(1,1-Di-n-butyl-n-pentyl)-urea]
[1]; [9]
  inhibition in vivo at 200 mg/kg: 67%
[2]; 500 mg/kg oral
  % of failures in rota rod test: 0%

## CCCC(CCC)(CCC)NC(=O)NC [Compound K, 1-(1,1-Di-n-propyl-n-butyl)-3-methyl-urea]
[5]; 0.5 h, 300 mg/kg oral, mouse, 30 min after administration, read-out: % of protection against anxiety
  inhibition in vivo at 300 mg/kg: 25%
[5]; 0.5 h, mouse
  ED25: 300 mg/kg
[1]; [9]
  inhibition in vivo at 200 mg/kg: 42%
[2]; 300 mg/kg oral, mouse (ED25 in four plates test)
  failures in the rota rod test: no failures
[2]; 600 mg/kg oral
  % of failures in rota rod test: 0%
[2]; at ED25 of four plates test
  sedative effect relative to reference products: much less sedative than diazepam and meprobamate
[3]; Mus musculus, 3 h, 200 mg/kg oral, mice, 15 min before 125 mg/kg pentylenetetrazole, read-out: % of protection against death
  responders at 200 mg/kg: 30%

## C=CCC(CCC)(CCC)NC(=O)NC [Compound L, 1-(1,1-Di-n-propyl-3-butenyl)-3-methyl-urea]
[1]; Mus musculus, 0.5 h, 228 mg/kg, mice, 30 min before test, read-out: % of decrease in number of combats
  inhibition in vivo at 228 mg/kg: 53%

## C#CCNC(=O)NC(CCC)(CCC)CCC [Compound M, 1-(1,1-Di-n-propyl-n-butyl)-3-(2-propynyl)-urea]
[1]; Mus musculus, 0.5 h, 254 mg/kg, mice, 30 min before test, read-out: % of decrease in number of combats
  inhibition in vivo at 254 mg/kg: 56%
[2]; 635 mg/kg oral
  % of failures in rota rod test: 0%

## C=CCNC(=O)NC(CCC)(CCC)CCC [Compound N, 1-(1,1-Di-n-propyl-n-butyl)-3-(2-propenyl)-urea]
[1]; Mus musculus, 0.5 h, 360 mg/kg, mice, 30 min before test, read-out: % of decrease in number of combats
  inhibition in vivo at 360 mg/kg: 30%
[2]; 720 mg/kg oral
  % of failures in rota rod test: 0%
[3]; Mus musculus, 3 h, 240 mg/kg oral, mice, 15 min before 125 mg/kg pentylenetetrazole, read-out: % of protection against death
  responders at 240 mg/kg: 20%

## CCCC(CCC)(CC(C)C)NC(N)=O [Compound P, 1-(1,1-Di-n-propyl-3-methyl-n-butyl)-urea]
[1]; Mus musculus, 0.5 h, 460 mg/kg, mice, 30 min before test, read-out: % of decrease in number of combats
  inhibition in vivo at 460 mg/kg: 31%
[2]; 690 mg/kg oral
  % of failures in rota rod test: 0%

## CN1C(=O)CN=C(c2ccccc2)c2cc(Cl)ccc21 [diazepam, reference compound]
[5]
  positive result in four plates test without sedative effect: impossible
[5]; 0.5 h, mouse
  ED25: 2 mg/kg
[5]; sedative effects too intense above 2 mg/kg
  ED50 in the four plates test: not possible to obtain a ED50
[1]; 0.69 mg/kg
  protection against anxiety: 50%
[1]; mice, without action on spontaneous motoricity
  decrease in number of combats obtainable without altering spontaneous motoricity: ≤ 15%
[2]; [10]
  failures in the rota rod test: 12%
[2]; 2 mg/kg
  Rota rod (% of failures): 35%
[6]; 2 mg/kg
  Spontaneous motoricity (% of decrease): 57%
[6]; dose producing 80% decrease in the number of combats
  decrease in spontaneous motoricity at dose giving 80% reduction in combats: 40%
[7]; 8 mg/kg
  sedative effects: strongly sedative
[7]; 8 mg/kg (strongly sedative), isolated mouse
  reduction in the number of attacks: 38%
[7]; doses active in four plates and electrically-provoked combat tests
  activity in the isolated mouse test: devoid of activity
[7]; up to 4 mg/kg, isolated mouse
  antiaggressive effect: no results

## CCCC(C)(COC(N)=O)COC(N)=O [meprobamate, reference compound]
[5]
  positive result in four plates test without sedative effect: impossible
[5]; 0.5 h, mouse
  ED25: 79 mg/kg
[1]; 70 mg/kg
  protection against anxiety: 50%
[2]; 170 mg/kg (ED50 in isolated mouse test)
  rota rod test effect: 75%
[2]; [10]
  failures in the rota rod test: 35%
[2]; 79 mg/kg
  Rota rod (% of failures): 30%
[6]; 79 mg/kg
  Spontaneous motoricity (% of decrease): 11%
[7]; 170 mg/kg
  sedative effects at antiaggressive dose: considerable
[7]; 0.5 h, oral, isolated mouse, 30 min after administration, read-out: ED50 (50% fewer attacks)
  ED50: 170 mg/kg
